ChEMBL document CHEMBL1201862, “PubChem BioAssay data set” (2004)
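These data come from cells grown in 96-well plates and exposed to compound for 48 hours at five concentrations. GI50 = concentration required for 50% inhibition of growth.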 Activity calls are given as the source filed them. Rule as the data show it: active = GI50 up to about 1.1 µM and inactive = higher.

Columns and labels:
Test in all cases: DTP human tumour cell line panel, 48 h
[1] = test system: M14
[2] = test system: SN12C
[3] = test system: NCI-H226
[4] = test system: HCC 2998
[5] = test system: SK-MEL-2
[6] = test system: SF-268
[7] = test system: HL-60
[8] = test system: Malme-3M
[9] = test system: K562
[10] = test system: HT-29
[11] = test system: RXF 393
[12] = test system: HCT-116
[13] = test system: OVCAR-3
[14] = test system: SF-295
[15] = test system: MDA-N
[16] = test system: 786-0
[17] = test system: U-251
[18] = test system: PC-3
[19] = test system: COLO 205
[20] = test system: MCF7
[21] = test system: ACHN
[22] = test system: UACC-62
[23] = test system: UACC-257
[24] = test system: NCI/ADR-RES
[25] = test system: RPMI-8226
[26] = test system: SNB-19
[27] = test system: MDA-MB-435
[28] = test system: A498
[29] = test system: NCI-H460
[30] = test system: SK-MEL-5
[31] = test system: HOP-92
[32] = test system: DU-145
[33] = test system: SR
[34] = test system: MDA-MB-231
[35] = test system: NCI-H522
[36] = test system: OVCAR-4
[37] = test system: CCRF-CEM
[38] = test system: SW-620
[39] = test system: SF-539
[40] = test system: SNB-75
[41] = test system: NCI-H23
[42] = test system: KM12
[43] = test system: HCT-15
[44] = test system: BT-549
[45] = test system: SK-OV-3
[46] = test system: UO-31
[47] = test system: CAKI-1
[48] = test system: OVCAR-5
[49] = test system: HOP-62
[50] = test system: IGROV-1
[51] = test system: SK-MEL-28
[52] = test system: LOX IMVI
[53] = test system: A549
[54] = test system: MOLT-4
[55] = test system: T47D
[56] = test system: TK-10
[57] = test system: Hs-578T
[58] = test system: OVCAR-8
[59] = test system: EKVX

COc1cccc2c1/c(=C/c1ccc(N(C)C)cc1)c1cc(-c3ccccc3)[n+](C)n12
GI50 [1]: 126 nM (active) | GI50 [2]: 33.1 nM (active) | GI50 [3]: 177 nM (active) | GI50 [4]: 34.8 nM (active) | GI50 [5]: 131 nM (active) | GI50 [6]: 109 nM (active) | GI50 [7]: 15.5 nM (active) | GI50 [8]: 221 nM (active) | GI50 [9]: 49.3 nM (active) | GI50 [10]: 73.6 nM (active) | GI50 [11]: 528 nM (active) | GI50 [12]: 107 nM (active) | GI50 [13]: 85.7 nM (active) | GI50 [14]: 81.3 nM (active) | GI50 [15]: 82.6 nM (active) | GI50 [16]: 74 nM (active) | GI50 [17]: < 15.8 nM (active) | GI50 [18]: 32.1 nM (active) | GI50 [19]: 27.2 nM (active) | GI50 [20]: 95.7 nM (active) | GI50 [21]: 216 nM (active) | GI50 [22]: 182 nM (active) | GI50 [23]: 113 nM (active) | GI50 [24]: 3190 nM (inactive) | GI50 [25]: 20.2 nM (active) | GI50 [26]: 93.3 nM (active) | GI50 [27]: 77.3 nM (active) | GI50 [28]: 305 nM (active) | GI50 [29]: 106 nM (active) | GI50 [30]: 155 nM (active) | GI50 [31]: 41.4 nM (active) | GI50 [32]: 98.6 nM (active) | GI50 [33]: 38.5 nM (active) | GI50 [34]: 259 nM (active) | GI50 [35]: 168 nM (active) | GI50 [36]: 344 nM (active) | GI50 [37]: 57.1 nM (active) | GI50 [38]: 42.1 nM (active) | GI50 [39]: 169 nM (active) | GI50 [40]: 189 nM (active) | GI50 [41]: 131 nM (active) | GI50 [42]: 107 nM (active) | GI50 [43]: 471 nM | GI50 [44]: 87.5 nM (active) | GI50 [45]: 223 nM (active) | GI50 [46]: 295 nM (active) | GI50 [47]: 804 nM (active) | GI50 [48]: 509 nM (active) | GI50 [49]: 218 nM (active) | GI50 [50]: 83 nM (active) | GI50 [51]: 239 nM (active) | GI50 [52]: 153 nM (active) | GI50 [53]: 112 nM (active) | GI50 [54]: 89.7 nM (active) | GI50 [55]: 96.4 nM (active) | GI50 [56]: 165 nM (active) | GI50 [57]: 147 nM (active) | GI50 [58]: 44.6 nM (active)

COc1ccc(/N=N/c2ccc3oc(=O)c(C(=O)Nc4ccccc4)cc3c2)cc1
GI50 [1]: > 10000 nM (inactive) | GI50 [2]: > 10000 nM (inactive) | GI50 [3]: > 10000 nM (inactive) | GI50 [4]: > 10000 nM (inactive) | GI50 [5]: > 10000 nM (inactive) | GI50 [6]: > 8320 nM (inactive) | GI50 [59]: > 10000 nM (inactive) | GI50 [7]: 3160 nM (inactive) | GI50 [8]: > 10000 nM (inactive) | GI50 [10]: > 10000 nM (inactive) | GI50 [11]: > 10000 nM (inactive) | GI50 [12]: > 10000 nM (inactive) | GI50 [13]: > 10000 nM (inactive) | GI50 [14]: > 10000 nM (inactive) | GI50 [15]: > 10000 nM (inactive) | GI50 [16]: > 10000 nM (inactive) | GI50 [17]: > 10000 nM (inactive) | GI50 [18]: > 6010 nM (inactive) | GI50 [19]: > 10000 nM (inactive) | GI50 [20]: > 9290 nM (inactive) | GI50 [21]: > 5810 nM (inactive) | GI50 [22]: > 10000 nM (inactive) | GI50 [23]: > 10000 nM (inactive) | GI50 [24]: > 10000 nM (inactive) | GI50 [25]: > 10000 nM (inactive) | GI50 [26]: > 10000 nM (inactive) | GI50 [27]: > 10000 nM (inactive) | GI50 [28]: > 10000 nM (inactive) | GI50 [29]: > 10000 nM (inactive) | GI50 [30]: > 10000 nM (inactive) | GI50 [31]: > 10000 nM (inactive) | GI50 [32]: > 6850 nM (inactive) | GI50 [33]: > 10000 nM (inactive) | GI50 [34]: > 10000 nM (inactive) | GI50 [35]: > 10000 nM (inactive) | GI50 [36]: > 10000 nM (inactive) | GI50 [38]: > 10000 nM (inactive) | GI50 [39]: > 9310 nM (inactive) | GI50 [40]: > 9310 nM (inactive) | GI50 [41]: > 10000 nM (inactive) | GI50 [42]: > 10000 nM (inactive) | GI50 [43]: > 9230 nM | GI50 [44]: > 10000 nM (inactive) | GI50 [45]: > 10000 nM (inactive) | GI50 [46]: 5520 nM (inactive) | GI50 [47]: > 10000 nM (inactive) | GI50 [48]: > 10000 nM (inactive) | GI50 [49]: > 10000 nM (inactive) | GI50 [50]: > 10000 nM (inactive) | GI50 [51]: > 10000 nM (inactive) | GI50 [52]: > 10000 nM (inactive) | GI50 [53]: > 10000 nM (inactive) | GI50 [54]: 6400 nM (inactive) | GI50 [55]: 4500 nM (inactive) | GI50 [56]: > 10000 nM (inactive) | GI50 [57]: > 10000 nM (inactive) | GI50 [58]: > 8510 nM (inactive)
